For three compounds, EC50 results are on record in patent publication US8802661B2, “C-28 amides of modified C-3 betulinic acid derivatives as HIV maturation inhibitors” (priority 2010, dated 2014).

What is called pEC50 is the EC50 on a negative log10 scale, so that one unit is a factor of ten.

Each structure is given as a SMILES string. pEC50: −log10 of the molar value. A value given as a limit tells only on which side of the number the result lay.

In the assay the test system is recombinant NL4-3 virus (Renilla luciferase in nef, Gag P373S). Kind of assay: HIV Cell Culture Assay (luciferase reporter virus in MT-2 cells). The format is cell-based. Conditions: NL43, read-out: EC50 Group. A digest of the protocol: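 Read-out is Renilla luciferase, measured immediately after adding a premixed lysis/Dual Luciferase reagent. The reporter virus, NL4-3 with luciferase replacing part of nef plus Gag P373S, infected MT-2 cells for 4–5 days under serially diluted inhibitor.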
In general terms: A reporter such as luciferase makes a cellular process visible.
Take `C=C(C)[C@@H]1CC[C@]2(C(=O)NCC3CCCN3CC)CC[C@]3(C)[C@H](CC[C@@H]4[C@@]5(C)CC=C(c6ccc(C(=O)O)cc6)C(C)(C)[C@@H]5CC[C@]43C)[C@@H]12` (stereo partly drawn) [Example 39, 4-((1R,3aS,5aR,5bR,7aR,11aS,11bR,13aR,13bR)-3a-((1-ethylpyrrolidin-2-yl)methylcarbamoyl)-5a,5b,8,8,11a-pentamethyl-1-(prop-1-en-2-yl)-2,3,3a,4,5,5a,5b,6,7,7a,8,11,11a,11b,12,13,13a,13b-octadecahydro-1H-cyclopenta[a]chrysen-9-yl)benzoic acid]: the pEC50 was more than 7.00.

Turning to `C=C(C)[C@@H]1CC[C@]2(C(=O)N3CCC(O)CC3)CC[C@]3(C)[C@H](CC[C@@H]4[C@@]5(C)CC=C(c6ccc(C(=O)O)cc6)C(C)(C)[C@@H]5CC[C@]43C)[C@@H]12` [Example 22, 4-((1R,3aS,5aR,5bR,7aR,11aS,11bR,13aR,13bR)-3a-(4-hydroxypiperidine-1-carbonyl)-5a,5b,8,8,11a-pentamethyl-1-(prop-1-en-2-yl)-2,3,3a,4,5,5a,5b,6,7,7a,8,11,11a,11b,12,13,13a,13b-octadecahydro-1H-cyclopenta[a]chrysen-9-yl)benzoic acid], the pEC50 was more than 7.00.

As to `C=C(C)[C@@H]1CC[C@]2(C(=O)NCc3nccs3)CC[C@]3(C)[C@H](CC[C@@H]4[C@@]5(C)CC=C(c6ccc(C(=O)O)cc6)C(C)(C)[C@@H]5CC[C@]43C)[C@@H]12` [Example 41, 4-((1R,3aS,5aR,5bR,7aR,11aS,11bR,13aR,13bR)-5a,5b,8,8,11a-pentamethyl-1-(prop-1-en-2-yl)-3a-(thiazol-2-ylmethylcarbamoyl)-2,3,3a,4,5,5a,5b,6,7,7a,8,11,11a,11b,12,13,13a,13b-octadecahydro-1H-cyclopenta[a]chrysen-9-yl)benzoic acid], the pEC50 was more than 7.00.
